Read-outs that look alike come from different tables or passages of the source.

This experiment relates to HCV 1b genotype. The experiment can be described thus: HCV Replicon assay (HCV 1b genotype). The experiment is classed as cell-based. To be noted: Hepatitis C virus, HCV 1b genotype replicon. How it is done:
An HCV Replicon assay was utilized in the present disclosure, and was prepared, conducted and validated as described in commonly owned PCT/US2006/022197 and in O'Boyle et al., Antimicrob. Agents Chemother., 49(4):1346-1353 (April 2005). Assay methods incorporating luciferase reporters have also been used as described (Apath.com).
HCV-neo replicon cells and replicon cells containing resistance substitutions in the NS5A region were used to test the currently described family of compounds. The compounds were determined to have differing degrees of reduced inhibitory activity on cells containing mutations vs. the corresponding inhibitory potency against wild-type cells. Thus, the compounds of the present disclosure can be effective in inhibiting the function of the HCV NS5A protein and are understood to be as effective in combinations as previously described in application PCT/US2006/022197 and commonly owned WO 04/014852. It should be understood that the compounds of the present disclosure can inhibit multiple genotypes of HCV. […] In one embodiment, compounds of the present disclosure are inhibitory versus 1a, 1b, 2a, 2b, 3a, 4a, and 5a genotypes.
Background: Replicon systems follow genome replication, usually without infectious particles.

Where [1] appears, read: read-out: Range (EC50 values against HCV 1b).

As a reminder, the EC50 is the concentration needed to bring the measured effect to its halfway point. In the case of `COC(=O)N[C@H](C(=O)N1[C@@H]2C[C@@H]2C[C@H]1c1ncc(-c2cnc3cc(-c4ccc5nc([C@@H]6C[C@H]7C[C@H]7N6C(=O)[C@@H](NC(=O)OC)C6CCOCC6)[nH]c5c4)ccc3n2)[nH]1)C1CCOCC1` [Example 58, Methyl((1S)-2-((1R,3S,5R)-3-(4-(6-(2-((1R,3S,5R)-2-((2S)-2-((methoxycarbonyl)amino)-2-(tetrahydro-2H-pyran-4-yl)acetyl)-2-azabicyclo[3.1.0]hex-3-yl)-1H-benzimidazol-5-yl)-2-quinoxalinyl)-1H-imidazol-2-yl)-2-azabicyclo[3.1.0]hex-2-yl)-2-oxo-1-(tetrahydro-2H-pyran-4-yl)ethyl)carbamate], the EC50 is, setting by setting: (read-out: EC50) 0.849 nM; under setting [1], 0.0101 to 1 nM. `COC(=O)N[C@H](C(=O)N1[C@@H](C)CC[C@H]1c1ncc(-c2ccc(-c3ccc4cc(-c5cnc([C@@H]6CC[C@H](C)N6C(=O)[C@@H](NC(=O)OC)C6CCC(F)(F)CC6)[nH]5)ccc4c3)cc2)[nH]1)C1CCC(F)(F)CC1` [Example 71, Methyl((1S)-1-(4,4-difluorocyclohexyl)-2-((2S,5S)-2-(4-(4-(6-(2-((2S,5S)-1-((2S)-2-(4,4-difluorocyclohexyl)-2-((methoxycarbonyl)amino)acetyl)-5-methyl-2-pyrrolidinyl)-1H-imidazol-4-yl)-2-naphthyl)phenyl)-1H-imidazol-2-yl)-5-methyl-1-pyrrolidinyl)-2-oxoethyl)carbamate]: the half-maximal effective concentration (EC50) (read-out: EC50) is 0.00211 nM.

Regarding `COC(=O)NC(C(=O)N1[C@@H]2C[C@@H]2C[C@H]1c1ncc(C#Cc2ccc3cc(-c4cnc([C@@H]5C[C@H]6C[C@H]6N5C(=O)C(NC(=O)OC)C5CCOCC5)[nH]4)ccc3c2)[nH]1)C1CCOCC1` (stereo partly drawn) [Example 75, methyl(2-((1R,3S,5R)-3-(4-(6-((2-((1R,3S,5R)-2-(((methoxycarbonyl)amino)(tetrahydro-2H-pyran-4-yl)acetyl)-2-azabicyclo[3.1.0]hex-3-yl)-1H-imidazol-4-yl)ethynyl)-2-naphthyl)-1H-imidazol-2-yl)-2-azabicyclo[3.1.0]hex-2-yl)-2-oxo-1-(tetrahydro-2H-pyran-4-yl)ethyl)carbamate], the EC50 reads like this: (read-out: EC50) 0.123 nM; under setting [1], 1.01 to 1000 nM. As to `COC(=O)N[C@H](C(=O)N1[C@@H]2C[C@@H]2C[C@H]1c1ncc(-c2ccc(-c3ccc4nc(-c5cnc([C@@H]6C[C@H]7C[C@H]7N6C(=O)[C@@H](NC(=O)OC)C(C)C)[nH]5)ccc4c3)cc2)[nH]1)C(C)C` [Example 80, methyl((1S)-1-(((1R,3S,5R)-3-(4-(6-(4-(2-((1R,3S,5R)-2-((2S)-2-((methoxycarbonyl)amino)-3-methylbutanoyl)-2-azabicyclo[3.1.0]hex-3-yl)-1H-imidazol-4-yl)phenyl)-2-quinolinyl)-1H-imidazol-2-yl)-2-azabicyclo[3.1.0]hex-2-yl)carbonyl)-2-methylpropyl)carbamate], under “read-out: EC50”, the EC50 was 0.00108 nM. Consider `COC(=O)N[C@H](C(=O)N1[C@@H]2C[C@@H]2C[C@H]1c1ncc(C#Cc2ccc3cc(-c4cnc([C@@H]5C[C@H]6C[C@H]6N5C(=O)[C@@H](NC(=O)OC)C5CCOCC5)[nH]4)ccc3c2)[nH]1)C1CCOCC1` [Example 82, Methyl((1S)-2-((1R,3S,5R)-3-(4-(6-((2-((1R,3S,5R)-2-((2S)-2-((methoxycarbonyl)amino)-2-(tetrahydro-2H-pyran-4-yl)acetyl)-2-azabicyclo[3.1.0]hex-3-yl)-1H-imidazol-4-yl)ethynyl)-2-naphthyl)-1H-imidazol-2-yl)-2-azabicyclo[3.1.0]hex-2-yl)-2-oxo-1-(tetrahydro-2H-pyran-4-yl)ethyl)carbamate], for which the EC50 was 0.0422 nM (read-out: EC50) and 0.0101 to 1 nM under setting [1]. For `COc1cccc2c(C(=O)N3[C@@H]4C[C@@H]4C[C@H]3c3ncc(C#Cc4ccc5cc(-c6cnc([C@@H]7C[C@H]8C[C@H]8N7C(=O)c7nc(Cl)cc8c(OC)cccc78)[nH]6)ccc5c4)[nH]3)nc(Cl)cc12` [Example 93, 3-Chloro-1-(((1R,3S,5R)-3-(4-(6-((2-((1R,3S,5R)-2-((3-chloro-5-methoxy-1-isoquinolinyl)carbonyl)-2-azabicyclo[3.1.0]hex-3-yl)-1H-imidazol-4-yl)ethynyl)-2-naphthyl)-1H-imidazol-2-yl)-2-azabicyclo[3.1.0]hex-2-yl)carbonyl)-5-methoxyisoquinoline] the same measures were 40 nM and 1.01 to 1000 nM. Take `COC(=O)N[C@H](C(=O)N1[C@@H]2C[C@@H]2C[C@H]1c1ncc(-c2ccc3cc(C#Cc4cnc([C@@H]5C[C@H]6C[C@H]6N5C(=O)[C@@H](NC(=O)OC)C5CCOCC5)[nH]4)ccc3c2)[nH]1)C(C)C` [Example 96, Methyl((1S)-2-((1R,3S,5R)-3-(4-((6-(2-((1R,3S,5R)-2-((2S)-2-((methoxycarbonyl)amino)-3-methylbutanoyl)-2-azabicyclo[3.1.0]hex-3-yl)-1H-imidazol-4-yl)-2-naphthyl)ethynyl)-1H-imidazol-2-yl)-2-azabicyclo[3.1.0]hex-2-yl)-2-oxo-1-(tetrahydro-2H-pyran-4-yl)ethyl)carbamate]: the EC50 under setting [1] lay within 0.0101 to 1 nM. `COC(=O)N[C@H](C(=O)N1[C@@H]2C[C@@H]2C[C@H]1c1ncc(C#Cc2ccc3cc(-c4cnc([C@@H]5CC[C@H](C)N5C(=O)[C@@H](NC(=O)OC)C5CCOCC5)[nH]4)ccc3c2)[nH]1)C1CCOCC1` [Example 98, Methyl((1S)-2-((2S,5S)-2-(4-(6-((2-((1R,3S,5R)-2-((2S)-2-((methoxycarbonyl)amino)-2-(tetrahydro-2H-pyran-4-yl)acetyl)-2-azabicyclo[3.1.0]hex-3-yl)-1H-imidazol-4-yl)ethynyl)-2-naphthyl)-1H-imidazol-2-yl)-5-methyl-1-pyrrolidinyl)-2-oxo-1-(tetrahydro-2H-pyran-4-yl)ethyl)carbamate]: the EC50 under setting [1] lay in the range of 0.0101 to 1 nM. On to `COC(=O)N[C@H](C(=O)N1[C@@H]2C[C@@H]2C[C@H]1c1ncc(-c2ccc(-c3ccc4nc(-c5cnc([C@@H]6C[C@H]7C[C@H]7N6C(=O)[C@@H](NC(=O)OC)C(C)C)[nH]5)cnc4c3)cc2)[nH]1)C(C)C` [Example 104], for which the EC50 (read-out: EC50) is 0.00201 nM.

As for `CC(=O)N1[C@@H](C)CC[C@H]1c1ncc(-c2ccc(-c3ccc4cc(-c5cnc([C@@H]6CC[C@H](C)N6C(C)=O)[nH]5)ccc4c3)cc2)[nH]1` [Example 109, 2-((2S,5S)-1-Acetyl-5-methyl-2-pyrrolidinyl)-4-(4-(6-(2-((2S,5S)-1-acetyl-5-methyl-2-pyrrolidinyl)-1H-imidazol-4-yl)-2-naphthyl)phenyl)-1H-imidazole], the EC50 is 180 nM (read-out: EC50) and 1.01 to 1000 nM under setting [1].

Regarding `COC(=O)N[C@H](C(=O)N1C[C@@H](C)C[C@H]1c1ncc(-c2ccc(-c3ccc4nc(-c5cnc([C@@H]6C[C@H](C)CN6C(=O)[C@@H](NC(=O)OC)C6CCOCC6)[nH]5)ccc4c3)cc2)[nH]1)C1CCOCC1` [Example 114, Methyl((1S)-2-((2S,4S)-2-(4-(6-(4-(2-((2S,4S)-1-((2S)-2-((methoxycarbonyl)amino)-2-(tetrahydro-2H-pyran-4-yl)acetyl)-4-methyl-2-pyrrolidinyl)-1H-imidazol-4-yl)phenyl)-2-quinolinyl)-1H-imidazol-2-yl)-4-methyl-1-pyrrolidinyl)-2-oxo-1-(tetrahydro-2H-pyran-4-yl)ethyl)carbamate], the concentration for a half-maximal effect (EC50) under setting [1] was 0.0101 to 1 nM. On to `COC(=O)N[C@H](C(=O)N1CCOC[C@H]1c1nc(-c2ccc(-c3ccc4cc(-c5c[nH]c([C@@H]6COCCN6C(=O)[C@@H](NC(=O)OC)C6CCOCC6)n5)ccc4c3)cc2)c[nH]1)C1CCOCC1` [Example 116, Methyl((1S)-2-((3R)-3-(4-(4-(6-(2-((3R)-4-((2S)-2-((methoxycarbonyl)amino)-2-(tetrahydro-2H-pyran-4-yl)acetyl)-3-morpholinyl)-1H-imidazol-4-yl)-2-naphthyl)phenyl)-1H-imidazol-2-yl)-4-morpholinyl)-2-oxo-1-(tetrahydro-2H-pyran-4-yl)ethyl)carbamate], for which the EC50 under setting [1] is 0.0101 to 1 nM. Consider `COC(=O)N[C@H](C(=O)N1CCCC[C@H]1c1nc(-c2ccc(-c3ccc4cc(-c5c[nH]c([C@@H]6CCCCN6C(=O)[C@@H](NC(=O)OC)C(C)C)n5)ccc4c3)cc2)c[nH]1)C(C)C` [Example 118, Methyl((1S)-1-(((2S)-2-(4-(4-(6-(2-((2S)-1-((2S)-2-((methoxycarbonyl)amino)-3-methylbutanoyl)-2-piperidinyl)-1H-imidazol-4-yl)-2-naphthyl)phenyl)-1H-imidazol-2-yl)-1-piperidinyl)carbonyl)-2-methylpropyl)carbamate], for which the EC50 is 0.0374 nM (read-out: EC50) and 0.0101 to 1 nM under setting [1].

Regarding `COC(=O)N[C@H](C(=O)N[C@@H](C)c1ncc(-c2ccc(-c3ccc4cc(-c5cnc([C@H](C)NC(=O)[C@@H](NC(=O)OC)C(C)C)[nH]5)ccc4c3)cc2)[nH]1)C(C)C` [Example 124, Methyl((1S)-1-(((1S)-1-(4-(4-(6-(2-((1S)-1-(((2S)-2-((methoxycarbonyl)amino)-3-methylbutanoyl)amino)ethyl)-1H-imidazol-4-yl)-2-naphthyl)phenyl)-1H-imidazol-2-yl)ethyl)carbamoyl)-2-methylpropyl)carbamate], the EC50 under setting [1] lay within 0.0101 to 1 nM.

The values are drawn from US9006455B2 (Bristol-Myers Squibb Company, priority 2009, dated 2015).
